Measurements as given in patent US20130071496A1, “CONTROLLED RELEASE COMPOSITION CONTAINING A STRONTIUM SALT” (Osteologix A/S, priority 2003, published 2013).
Where two headings read alike, the source gives them in different places.

Columns and labels:
[1] = Experimental: The solubility of the organic carboxylic acid strontium salts, were measured in water. The solubility of these salts was also measured as a function of temperature. This was performed by incubating the saturated solutions of the salts in temperature controlled incubators.
The buffered solutions were immersed into a bath of water temperature controlled at either room temperature (22-24° C.), at 30° C. or at 40° C. […] In order to eliminate any reminiscent strontium chloride influence on the determination of solubility, all the precipitate was collected at the bottom of the test tubes and the solutions above the precipitate were carefully removed and substituted by fresh solutions. […] From these solutions, the dissolved proportions of the strontium salt were collected in volumes of 1 mL at the specified temperature. The solutions were diluted to 50 mL before analysis by Flame Atomic Absorption Spectrometry (F-AAS).
Two methods were used for quantification of strontium in solutions: Flame Atomic Absorption Spectrometry (F-AAS), and the more sensitive inductively-coupled-plasmamass spectrometry (ICP-MS).
The solubilities were investigated as described above, and strontium content in the saturated solutions determined as described here below.
Some of the very soluble strontium salts were further diluted before analysis by F-AAS. The measurements were performed by using a Perkin-Elmer 2100 equipped with a hydrogen lamp for correction of the background signal. Strontium was measured at a slit with of 0.2 nm, the wavelength was 460.8 nm operated at an energy of 58 and a current of 8 mA.
This analysis was performed using a Perkin Elmer Elan 5000 system equipped with a cross-flow nebulizer. The power was set at 1000 W and the Argon-gas flow was 12 L/min and 0.8 L/min of the torch and plasma gas, respectively.

Remark: listed apart in the source
[2] = values quoted in scientific literature or reference material; cited from earlier work

Solubility, Measured ([1]; commercially available salts, in water at room temperature (22-24°)) [mg/mL]	time to maximum serum concentration (serum strontium, single oral gavage, rats)	time to maximum serum concentration (rat, in vivo, po)	Structure (SMILES)	SOLUBILITY AT ROOM TEMPERATURE (22-24° C.), In water [1] [Mg/L]	SOLUBILITY AT ROOM TEMPERATURE (22-24° C.), pH 7.5 ([1]; pH 7.5) [Mg/L]	SOLUBILITY AT 40° C., In water [1] [mg/L]	SOLUBILITY AT 40° C., pH 7.5 ([1]; pH 7.5) [mg/L]	solubility in pH 7.5 buffered solution compared with pure water ([1]; pH 7.5)	Solubility, Expected Value 18° C. [2] [mg/mL]	solubility compared to the other organic strontium salts [1]
			CC(=O)C(=O)O [Pyruvate, strontium pyruvate]	2204	1946					
			O=C([O-])/C=C\C(=O)[O-].[Sr+2] [Maleate, strontium maleate]	3002	1680	2527	1457	decreased solubility in the buffered solution		
240	approximately 2 hours		[Cl-].[Cl-].[Sr+2] [SrCl2, strontium chloride]						538	
		approximately 2 hours	N#Cc1c(N(CC(=O)[O-])CC(=O)[O-])sc(C(=O)[O-])c1CC(=O)[O-].[Sr+2].[Sr+2] [Ranelate, distrontium salt of 2-[N,N-di(carboxymethyl)amino]-3-cyano-4-carboxymethylthiophene-5-carboxylic acid, reference compound]	760	890	1450	1970			
			O=C([O-])/C=C/C(=O)[O-].[Sr+2] [Fumerate, strontium fumarate]	571	1215	444	977			poor solubility
